TGI data for 18 molecules are collected here from PubChem BioAssay (NCI).

Test systems include ACHN renal; HL-60(TB) leukemia; MDA-MB-231 breast; MDA-N; NCI-H226 lung; OVCAR-5 ovarian; SK-MEL-28 melanoma; SNB-19 CNS; UACC-257 melanoma; UACC-62 melanoma.
Assay in all cases: DTP human tumour cell line panel, 48 h

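Method: 48-hour compound exposure of cells in 96-well plates, five concentrations, linear interpolation of endpoints. At the TGI there is no net growth.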 Where a SMILES comes first, the peptide text is derived from it. The star is where a group is joined. Boc = CC(C)(C)OC(=O)* Bounds are passed on as bounds.

Take `Clc1ccc(-c2nn3c(COc4cccc(OCc5nnc6sc(-c7ccc(Cl)cc7)nn56)c4)nnc3s2)cc1`: the concentration for total growth inhibition (TGI) is 68.4 µM in the assay with ACHN renal; 53.6 µM in the assay on HL-60(TB) leukemia; > 100 µM with MDA-MB-231 breast; 36.4 µM with MDA-N; > 100 µM in the assay with NCI-H226 lung; 74.4 µM with OVCAR-5 ovarian. Moreover, the TGI was 35.9 µM in the assay on SK-MEL-28 melanoma, > 100 µM in the assay with SNB-19 CNS, 62.1 µM in the assay with UACC-257 melanoma and 77.1 µM with UACC-62 melanoma.

With `O=C1c2ccccc2C2(c3ccc(F)cc3)NCCN12` (stereo not given), the TGI in the assay with ACHN renal, in the assay with HL-60(TB) leukemia, with MDA-MB-231 breast, with MDA-N, in the assay with NCI-H226 lung and with OVCAR-5 ovarian was > 100 µM throughout. In addition, the TGI in the assay on SK-MEL-28 melanoma, in the assay with SNB-19 CNS, with UACC-257 melanoma and in the assay with UACC-62 melanoma was > 100 µM each time.

In the case of `C=C(CN(CC)CC)C1(c2ccccc2)CC2(CCCC2)C(=O)O1` (stereo not given), the TGI in the assay with ACHN renal, with HL-60(TB) leukemia, with MDA-MB-231 breast, in the assay with MDA-N, in the assay with NCI-H226 lung and in the assay with OVCAR-5 ovarian was > 100 µM throughout. The TGI was > 100 µM in the assay with SK-MEL-28 melanoma, > 100 µM in the assay on SNB-19 CNS, 98.9 µM in the assay with UACC-257 melanoma and > 100 µM in the assay on UACC-62 melanoma.

Turning to `O=C1C=CC2(O[C@H](C3CCCCC3)[C@@H](C3CCCCC3)O2)C(SC(=O)c2ccccc2)C1` (stereo not given in full), the TGI worked out at 6.43 µM in the assay with ACHN renal; 7.37 µM in the assay on HL-60(TB) leukemia; 5.11 µM in the assay on MDA-MB-231 breast; 7.2 µM with MDA-N; 1.62 µM in the assay with NCI-H226 lung; 6.32 µM in the assay on OVCAR-5 ovarian. The TGI in the assay with SK-MEL-28 melanoma was found to be 3.15 µM; with SNB-19 CNS, 6.56 µM; in the assay on UACC-257 melanoma it was 16.2 µM; in the assay with UACC-62 melanoma, 8.57 µM.

As to `O=S(=O)(/N=S(/Nc1ccccc1)C(F)(F)Cl)c1ccccc1` (stereo not given), the TGI in the assay with ACHN renal, with HL-60(TB) leukemia, in the assay with MDA-MB-231 breast, with MDA-N, with NCI-H226 lung and in the assay with OVCAR-5 ovarian was > 100 µM in each case. In addition, the TGI with SK-MEL-28 melanoma, in the assay on SNB-19 CNS, in the assay with UACC-257 melanoma and with UACC-62 melanoma was > 100 µM throughout.

`CCOc1ccc2nc3nc(=O)[nH]c(C)c3c(NC(C)(CO)CO)c2c1`: the TGI in the assay with ACHN renal, with HL-60(TB) leukemia, in the assay with MDA-MB-231 breast, in the assay on MDA-N, in the assay on NCI-H226 lung and in the assay on OVCAR-5 ovarian was > 100 µM each time. Moreover, the TGI in the assay with SK-MEL-28 melanoma, with SNB-19 CNS, in the assay on UACC-257 melanoma and in the assay on UACC-62 melanoma was > 100 µM throughout.

Regarding `COC(=O)CCC(=O)NC1=C(Nc2ccccc2)C(=O)c2ccccc2C1=O`, the TGI in the assay on ACHN renal amounted to 29.5 µM; in the assay on HL-60(TB) leukemia, 13.5 µM; in the assay on MDA-MB-231 breast, 30.1 µM; with MDA-N, 3.59 µM; with NCI-H226 lung it was 28.6 µM; with OVCAR-5 ovarian, 19.7 µM. Besides, the TGI in the assay on SK-MEL-28 melanoma worked out at 17.7 µM; with SNB-19 CNS, 31.4 µM; in the assay with UACC-257 melanoma, 9.76 µM; with UACC-62 melanoma it was 7.55 µM.

Take `CSc1nnc(SCc2nn3c(=O)cc(C)nc3s2)s1`: the TGI with ACHN renal, with HL-60(TB) leukemia, with MDA-MB-231 breast, in the assay on MDA-N, in the assay with NCI-H226 lung and in the assay on OVCAR-5 ovarian was > 100 µM in each case. The TGI in the assay on SK-MEL-28 melanoma, in the assay on SNB-19 CNS, in the assay with UACC-257 melanoma and in the assay on UACC-62 melanoma was > 100 µM throughout.

Turning to `C=C(Br)C[N+]12CN3CN(CN(C3)C1)C2`, the TGI with ACHN renal, with HL-60(TB) leukemia, with MDA-MB-231 breast, with MDA-N, in the assay with NCI-H226 lung and with OVCAR-5 ovarian was > 100 µM throughout. Besides, the TGI in the assay on SK-MEL-28 melanoma, in the assay with SNB-19 CNS, in the assay on UACC-257 melanoma and in the assay on UACC-62 melanoma was > 100 µM throughout.

As for `Cc1ccc(S(=O)(=O)OCCC2CN(C(=O)OCc3ccccc3)C(C)(C)O2)cc1` (stereo not given), the TGI in the assay on ACHN renal is 64.9 µM; in the assay with HL-60(TB) leukemia, 30 µM; with MDA-MB-231 breast, > 100 µM; with MDA-N it was > 100 µM; in the assay with NCI-H226 lung it was 4.35 µM; in the assay on OVCAR-5 ovarian it was > 100 µM. Besides, the TGI in the assay with SK-MEL-28 melanoma was 82.1 µM; with SNB-19 CNS, 27.3 µM; in the assay with UACC-257 melanoma it was > 100 µM; in the assay on UACC-62 melanoma, > 100 µM.

In the case of `COC(=O)C1C(=O)CC(C)(O)C(C(=O)OC)C1c1ccc(N(C)C)cc1` (stereo not given), the TGI in the assay on ACHN renal, in the assay on HL-60(TB) leukemia, in the assay on MDA-MB-231 breast, in the assay on MDA-N, in the assay on NCI-H226 lung and with OVCAR-5 ovarian was > 100 µM in each case. The TGI in the assay with SK-MEL-28 melanoma, with SNB-19 CNS, in the assay on UACC-257 melanoma and with UACC-62 melanoma was > 100 µM in each case.

On to `O=C1C=C(N2CCN(c3ncccn3)CC2)C(=O)c2c(O)ccc(O)c21`, for which the TGI in the assay on ACHN renal was > 100 µM; in the assay on HL-60(TB) leukemia, > 100 µM; with MDA-MB-231 breast, > 100 µM; in the assay with MDA-N it was 31.3 µM; with NCI-H226 lung, > 100 µM; in the assay on OVCAR-5 ovarian it was > 100 µM. Moreover, the TGI in the assay with SK-MEL-28 melanoma, in the assay on SNB-19 CNS, with UACC-257 melanoma and in the assay on UACC-62 melanoma was > 100 µM in each case.

In the case of `Cc1nc2ccc(Br)cc2c(=O)n1-c1ccc(N)cc1`, the TGI in the assay with ACHN renal, with HL-60(TB) leukemia, in the assay with MDA-MB-231 breast, with MDA-N, in the assay with NCI-H226 lung and in the assay with OVCAR-5 ovarian was > 100 µM each time. The TGI with SK-MEL-28 melanoma, in the assay on SNB-19 CNS, in the assay with UACC-257 melanoma and in the assay with UACC-62 melanoma was > 100 µM throughout.

Regarding `CC(C)(C)OC(=O)C(C#N)C(=O)c1ccc(C(=O)O)[nH]1` (stereo not given), the TGI was > 100 µM with ACHN renal; 62.1 µM in the assay with HL-60(TB) leukemia; > 100 µM in the assay on MDA-MB-231 breast; > 100 µM in the assay with MDA-N; > 100 µM with NCI-H226 lung; > 100 µM in the assay on OVCAR-5 ovarian. Moreover, the TGI is > 100 µM in the assay on SK-MEL-28 melanoma, > 100 µM in the assay on SNB-19 CNS, > 100 µM with UACC-257 melanoma and 45.7 µM in the assay with UACC-62 melanoma.

In the case of `Cc1cc(C)c2c(c1)C/C(=C\c1cccc(C)c1C(=O)O)C2=O`, the TGI in the assay with ACHN renal, with HL-60(TB) leukemia, with MDA-MB-231 breast, with MDA-N, with NCI-H226 lung and with OVCAR-5 ovarian was > 100 µM throughout. Also, the total growth inhibition concentration (TGI) with SK-MEL-28 melanoma, in the assay with SNB-19 CNS, with UACC-257 melanoma and in the assay on UACC-62 melanoma was > 100 µM each time.

Take `CC(=O)CC(=O)N1CCSC1=S`: the TGI in the assay with ACHN renal, in the assay on HL-60(TB) leukemia, in the assay on MDA-MB-231 breast, in the assay on MDA-N, in the assay with NCI-H226 lung and in the assay with OVCAR-5 ovarian was > 10 µM throughout. For the same molecule, the TGI with SK-MEL-28 melanoma, in the assay on SNB-19 CNS, with UACC-257 melanoma and in the assay on UACC-62 melanoma was > 10 µM in each case.

Turning to `c1ccc2c[n+](CCCC[n+]3ccc4ccccc4c3)ccc2c1`, the TGI with ACHN renal, in the assay with HL-60(TB) leukemia, in the assay with MDA-MB-231 breast, in the assay with MDA-N, in the assay on NCI-H226 lung and in the assay with OVCAR-5 ovarian was > 100 µM in each case. Also, the TGI in the assay on SK-MEL-28 melanoma, in the assay on SNB-19 CNS, with UACC-257 melanoma and in the assay on UACC-62 melanoma was > 100 µM each time.

Turning to `COC(=O)C(Cc1c[nH]c2ccccc12)NC(=O)C(Cc1c[nH]c2ccccc12)NC(=O)C(Cc1c[nH]c2ccccc12)NC(=O)C(Cc1c[nH]c2ccccc12)NC(=O)C(Cc1c[nH]c2ccccc12)NC(=O)C(Cc1c[nH]c2ccccc12)NC(=O)C(Cc1c[nH]c2ccccc12)NC(=O)OC(C)(C)C` (stereo not given) (Boc-WWWWWWW-OMe; configuration not given here), the TGI with ACHN renal, in the assay on HL-60(TB) leukemia, with MDA-MB-231 breast, in the assay on MDA-N, in the assay with NCI-H226 lung and in the assay on OVCAR-5 ovarian was > 100 µM throughout. Besides, the TGI in the assay with SK-MEL-28 melanoma, in the assay on SNB-19 CNS, in the assay on UACC-257 melanoma and in the assay on UACC-62 melanoma was > 100 µM throughout.
